This is an account of results in patent US8552067B2, “Macromolecular conjugates of cystic fibrosis transmembrane conductance regulator protein inhibitors and uses therefor” (The Regents of the University of California, priority 2006, dated 2013).

In data set [1] the target is T1, wildtype CFTR (Homo sapiens, UniProt P13569). Put plainly: Whole-cell patch-clamp on FRT cells stably expressing wildtype CFTR. The conditions noted are these: after stepping membrane potential to +80 mV; MalH-ConA 250 nM, GlyH-101 5 μM. (In general: The patch-clamp technique gives a direct electrical read-out from membranes.)
Data set [2] is described as follows: Water solubility (statement). The class given is physicochemical.
Data set [3] addresses T1, wildtype CFTR. Put plainly: Apical membrane chloride current (short-circuit current) in FRT epithelial cells expressing human wildtype CFTR.
A further data set concerns the target T2, CFTR (Homo sapiens, UniProt P13569).
T2 construct: expressed in transfected cells; host or cells: Fischer rat thyroid (FRT) cells
Put plainly: Reversibility of CFTR chloride current inhibition after washout. Particulars: after 95-100% inhibition; MalH-ConA over six hours. The class given is cell-based. The protocol:
Chloride current increased slowly with incubation time, with 50% ‘reversal’ at approximately 8 h.

Where a name gives a salt, the structure may show the parent alone.

T1 sequence (P13569 whole entry): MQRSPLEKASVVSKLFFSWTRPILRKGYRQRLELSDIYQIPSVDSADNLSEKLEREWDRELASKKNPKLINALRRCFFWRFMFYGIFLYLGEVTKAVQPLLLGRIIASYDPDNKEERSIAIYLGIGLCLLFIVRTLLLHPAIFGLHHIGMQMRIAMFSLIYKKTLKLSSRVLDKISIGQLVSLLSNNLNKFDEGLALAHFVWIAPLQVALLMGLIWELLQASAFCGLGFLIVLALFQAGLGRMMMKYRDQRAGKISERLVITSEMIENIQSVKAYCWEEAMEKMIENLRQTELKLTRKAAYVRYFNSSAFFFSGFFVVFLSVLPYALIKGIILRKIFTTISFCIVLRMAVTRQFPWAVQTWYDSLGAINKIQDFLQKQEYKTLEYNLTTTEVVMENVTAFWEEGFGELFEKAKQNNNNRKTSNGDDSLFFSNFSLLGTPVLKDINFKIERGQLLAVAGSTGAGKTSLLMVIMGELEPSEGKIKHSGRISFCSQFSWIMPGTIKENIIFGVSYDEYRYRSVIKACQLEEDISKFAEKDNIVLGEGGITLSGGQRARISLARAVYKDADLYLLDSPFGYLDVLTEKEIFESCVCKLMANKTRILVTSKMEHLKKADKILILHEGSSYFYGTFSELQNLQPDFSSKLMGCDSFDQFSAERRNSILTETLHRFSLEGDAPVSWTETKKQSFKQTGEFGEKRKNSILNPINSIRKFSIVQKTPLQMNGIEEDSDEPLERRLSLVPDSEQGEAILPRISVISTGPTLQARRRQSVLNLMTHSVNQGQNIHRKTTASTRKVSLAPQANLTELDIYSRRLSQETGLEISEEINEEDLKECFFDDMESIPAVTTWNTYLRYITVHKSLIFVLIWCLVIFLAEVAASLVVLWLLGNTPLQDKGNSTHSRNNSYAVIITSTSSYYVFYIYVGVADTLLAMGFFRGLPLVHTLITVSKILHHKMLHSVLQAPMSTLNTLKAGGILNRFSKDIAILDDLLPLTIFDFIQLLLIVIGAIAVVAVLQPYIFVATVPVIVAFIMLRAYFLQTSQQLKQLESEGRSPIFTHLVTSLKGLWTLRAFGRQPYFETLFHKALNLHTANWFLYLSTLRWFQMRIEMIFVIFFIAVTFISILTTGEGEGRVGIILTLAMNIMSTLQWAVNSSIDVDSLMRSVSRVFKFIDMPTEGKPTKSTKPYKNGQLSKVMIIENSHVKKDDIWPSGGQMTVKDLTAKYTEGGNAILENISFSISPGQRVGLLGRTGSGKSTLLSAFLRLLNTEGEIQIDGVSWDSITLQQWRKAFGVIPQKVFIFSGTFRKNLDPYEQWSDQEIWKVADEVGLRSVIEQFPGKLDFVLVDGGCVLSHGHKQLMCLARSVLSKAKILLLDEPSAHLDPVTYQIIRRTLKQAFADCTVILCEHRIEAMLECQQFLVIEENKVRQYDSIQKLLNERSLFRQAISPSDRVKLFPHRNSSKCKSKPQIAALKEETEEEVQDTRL
T2 sequence (P13569 whole entry): as above

With `O=C(CNc1ccc2ccccc2c1)NN=Cc1cc(Br)c(O)c(Br)c1O` [GlyH-101, N^2-naphthalenyl-[3,5-[dibromo-2,4-dihydroxyphenyl)methylene]glycine hydrazide], the “time constant of current decay (single exponential)” value on wildtype CFTR [1] lay within 8 to 10 ms.
Regarding `O=C(NN=Cc1cc(Br)c(O)c(Br)c1)C(Nc1ccc2ccccc2c1)C(=O)NNC(=S)Nc1ccc(C=Cc2ccc(N=C=S)cc2S(=O)(=O)O)c(S(=O)(=O)O)c1` (stereo not shown) [MalH-DIDS, 2-naphthalenylamino-[(3,5-dibromo-4-dihydroxyphenyl)methylene]hydrazide [[[4-[2-(4-isothiocyanato-2-sulfophenypethenyl]-2-sulfophenyl]amino]thioxomethyl]hydrazide-propanedioic acid, disodium salt], the water solubility result in data set [2] is “highly water soluble”. The compound also had an IC50 against wildtype CFTR [3] of 1000 nM. Further, the “effect of mannose on CFTR inhibitory potency” value on wildtype CFTR [3] (200 mM mannose) is “did not affect”. The “effect of heat denaturation on CFTR inhibition activity” value on wildtype CFTR [3] (100° C. for 5 min) was “did not affect”. Further, on wildtype CFTR [3] (EDTA in buffer (chelation of Ca2+ and Mg2+)), the “effect of EDTA on CFTR inhibition potency” value is “did not affect”. Further, the “effect of excess unconjugated ConA on CFTR inhibition potency” value on wildtype CFTR [3] (excess ConA (5 μM) added before compound) is reported as “did not affect”. Moreover, the “effect of acid incubation on capability to inhibit CFTR” value on wildtype CFTR [3] (incubation at either pH 1.5 or pH 5.2) is “did not affect”. The “CFTR inhibition after pronase treatment” value on wildtype CFTR [3] (pronase 8 hours, pH 8, 37° C.) was “not affected”. The “reversal of CFTR inhibition after washout and forskolin re-addition” value at CFTR is “Near-complete and rapid reversal”.

As usually defined, the IC50 is the concentration at which inhibition is half-maximal. Read a low IC50 as inhibition by little substance.
